According to publication PMC10575282, “Elettaria cardamomum (L.) Maton Essential Oil: An Interesting Source of Bioactive Specialized Metabolites as Inhibitors of Acetylcholinesterase and Butyrylcholinesterase” (Plants, 2023):

How the values were obtained:
[1] = biological target: T1, acetylcholinesterase (AChE) from Electrophorus electricus (Electrophorus electricus, UniProt O42275); experiment: biochemical; assay type: biochemical; settings: for AChE Inhibition (%): fractions/compounds at the concentrations in which they are present in EO, average of three assays; for IC50 AChE: ± standard deviation, n = 3
T1 construct: purchased Merck Life Science S.r.l; (Milan, Italy)
Protocol: (§1) The protocol used in this study was that of Rhee et al., with slight modifications. The following buffers were used: buffer A (50 mM Tris-HCl pH 8), buffer B (50 mM Tris-HCl pH 8, with the addition of 0.1% of bovine albumin and 0.1% of TWEEN20), and buffer C (50 mM Tris-HCl pH 8, with the addition of 0.1 M of NaCl and 0.02 M of MgCl2 6H2O). The enzyme solution of 0.22 U/mL was prepared in buffer B. The acetylthiocholine iodide (ATCI) solution of 1.5 mM was prepared in Millipore water, while the butyrylthiocholine iodide (BTCI) solution was prepared in buffer A. Ellman’s reagent solution at 3 mM was prepared in buffer C.
(§2) The reaction mixture was incubated at 30 °C for 6 min. The absorbance values were measured at 405 nm after incubation. […] The control and sample blank solutions were prepared by replacing 150 µL of the enzyme solution with 150 µL of buffer A.
(§3) The percentage of the AChE or BChE inhibition was measured according to the equation below:% Inhibition = ΔA (Control) − ΔA (Sample)/ΔA (Control) × 100 ΔA (Control) = A412 (Control) − A412 (Control Blank) ΔA(Sample) = A412 (Sample) − A412 (Sample Blank)
(§4) The concentration–response curve was determined for each inhibitor by plotting the inhibitory activity against AChE or BChE as a function of the inhibitor concentration in the reaction mixture.
(§5) The Microsoft Excel programme was used for the Anova test. For the IC50 calculation, an online programme from AAT Bioquest was used (https://www.aatbio.com/tools/ic50-calculator, accessed on 10 May 2023).

[2] = biological target: T2, butyrylcholinesterase (BChE) from equine serum (Equus caballus, UniProt P81908); experiment: biochemical; assay type: biochemical; settings: for BChE Inhibition (%): fractions/compounds at the concentrations in which they are present in EO, average of three assays
T2 construct: butyrylcholinesterase (BChE) from equine serum; purchased Merck Life Science S.r.l; (Milan, Italy); host or cells: equine serum
Protocol: as §1, §2, §3, §4, §5

[3] = system: AChE; settings: cited from earlier work
[4] = system: BChE; design: method as in doi:10.1016/j.jff.2020.103892; settings: cited from earlier work

T2 sequence (P81908 whole entry): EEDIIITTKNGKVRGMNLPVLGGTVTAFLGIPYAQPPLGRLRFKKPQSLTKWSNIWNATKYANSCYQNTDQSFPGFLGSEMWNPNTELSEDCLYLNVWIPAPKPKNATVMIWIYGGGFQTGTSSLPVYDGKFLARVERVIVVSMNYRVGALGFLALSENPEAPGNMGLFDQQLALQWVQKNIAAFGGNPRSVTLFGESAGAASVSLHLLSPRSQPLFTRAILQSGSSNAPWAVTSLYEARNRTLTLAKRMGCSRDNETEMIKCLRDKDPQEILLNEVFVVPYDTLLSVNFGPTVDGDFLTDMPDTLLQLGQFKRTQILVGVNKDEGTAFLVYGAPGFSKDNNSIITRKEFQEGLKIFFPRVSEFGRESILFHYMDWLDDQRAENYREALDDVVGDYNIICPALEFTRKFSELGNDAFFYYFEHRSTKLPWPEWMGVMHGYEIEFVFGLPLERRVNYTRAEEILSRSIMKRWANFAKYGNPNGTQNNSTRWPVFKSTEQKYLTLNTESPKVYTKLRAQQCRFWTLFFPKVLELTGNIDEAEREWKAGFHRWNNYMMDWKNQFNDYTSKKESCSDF
T1 sequence (O42275 24-633): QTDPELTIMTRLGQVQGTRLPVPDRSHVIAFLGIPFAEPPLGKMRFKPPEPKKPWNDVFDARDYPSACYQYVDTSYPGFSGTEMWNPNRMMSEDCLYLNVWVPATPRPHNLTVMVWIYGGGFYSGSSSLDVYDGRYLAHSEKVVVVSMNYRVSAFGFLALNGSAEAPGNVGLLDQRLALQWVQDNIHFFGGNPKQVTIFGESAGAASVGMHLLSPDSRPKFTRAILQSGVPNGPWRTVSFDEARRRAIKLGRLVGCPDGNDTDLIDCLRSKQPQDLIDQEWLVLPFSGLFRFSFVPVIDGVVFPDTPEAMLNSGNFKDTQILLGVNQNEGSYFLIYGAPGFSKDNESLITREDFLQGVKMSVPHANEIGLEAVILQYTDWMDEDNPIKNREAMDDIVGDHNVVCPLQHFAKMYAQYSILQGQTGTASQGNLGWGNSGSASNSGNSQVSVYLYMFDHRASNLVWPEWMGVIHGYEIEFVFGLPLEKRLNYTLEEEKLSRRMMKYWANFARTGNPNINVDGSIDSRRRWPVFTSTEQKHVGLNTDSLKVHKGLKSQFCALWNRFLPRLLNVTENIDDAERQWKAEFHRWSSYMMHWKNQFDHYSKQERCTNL

With `CC12CCC(CC1)C(C)(C)O2` [1,8-cineole] the IC50 [1] was 91.4 µM, the “AChE Inhibition (%)” value [1] was 55.4% and the “IC50 BChE” value ([2]; ± standard deviation, n = 3) was “inactive inhibitor of BChE”. For the same molecule, the “IC50 BChE” value ([2]; ± standard deviation, n = 3, listed as 1,8-Cineole) was “not active” and the AChE inhibition ([3]; mechanism still unclear) was “known to actively inhibit AChE”.

In the case of `CC(=O)OC(C)(C)C1CC=C(C)CC1` (stereo not drawn) [α-terpinyl acetate], the “AChE Inhibition (%)” value [1] is reported as 17.0%, the “IC50 AChE” value [1] is reported as 50% inhibition was never achieved and the “IC50 AChE” value ([1]; listed as α-Terpinyl acetate) is reported as “Activity lower than 50%”. The “BChE Inhibition (%)” value [2] was 39.0%, the IC50 ([2]; ± standard deviation, n = 3) was 112 µM and the “Type of inhibition of AChE” value [3] was “competitive inhibition”. For the same molecule, the “Type of inhibition of BChE” value [4] was “mixed inhibition”.

For `C=CC(C)(CCC=C(C)C)OC(C)=O` (stereo not shown) [Linalyl acetate, linalyl acetate], the “BChE Inhibition (%)” value [2] was 10.3% and the “BChE Inhibition (%)” value ([2]; listed as linalyl acetate) was “active”.

In the case of `C=CC(C)(O)CCC=C(C)C` (stereo not shown) [Linalool, linalool], the “BChE Inhibition (%)” value [2] is reported as 5.0% and the “BChE Inhibition (%)” value ([2]; listed as linalool) is reported as “active”.
